The results in this text go back to patent US20230159510A1, “NOVEL PRMT5 INHIBITORS” (AMGEN INC., priority 2020, published 2023).

A word on the IC50: it is the midpoint of a concentration-inhibition curve. The term Ki denotes a dissociation constant, usually derived from enzyme kinetics or from competition with a known ligand.

The subject of test [1] is HCT116 MTAP null cells. The test is described as follows: HCT116 proliferation assay, MTAP null cells (CellTiter-Glo, 6 days). The test is classed as cell-based. The note with it: HCT116-MTAP null, 144 h, read-out: Protif_ HCT116-MTAP null IC50. An outline of the steps:
(§1)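 Readout is CellTiter-Glo luminescence after 6 days of drug exposure at 37 °C. Compounds tested as 8–9 point, 3-fold dilution series starting at 1 or 10 µM, versus DMSO only, on cells in RPMI 1640 with 10% FBS.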
On the technique in general: Cellular ATP, detected with luciferase, serves as a proxy for viable cell number.

The target of test [2] is PRMT5/MEP50 (Homo sapiens, UniProt O14744). Kind of test: MTase-Glo methyl transferase assay, Method B (FL-Histone H2A, 1 µM MTA, 1 h pre-incubation). It counts as biochemical. Set-up: purchased Reaction Biology Corp RD-11-292. The conditions noted are these: read-out: PRMT5 MTase Glo Ki (nM, Meth. B). Put shortly: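 PRMT5/MEP50 (4 nM) was pre-incubated 1 h with compound, 5 µM SAM and 1 µM MTA, then started with 2.5 µM FL-Histone H2A in Tris pH 8.0 buffer. After 20 h at room temperature, SAH was detected by MTase-Glo luminescence, and IC50/KI were fitted from dose-response curves.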
PRMT5/MEP50, sequence (O14744 2-637 limits assumed): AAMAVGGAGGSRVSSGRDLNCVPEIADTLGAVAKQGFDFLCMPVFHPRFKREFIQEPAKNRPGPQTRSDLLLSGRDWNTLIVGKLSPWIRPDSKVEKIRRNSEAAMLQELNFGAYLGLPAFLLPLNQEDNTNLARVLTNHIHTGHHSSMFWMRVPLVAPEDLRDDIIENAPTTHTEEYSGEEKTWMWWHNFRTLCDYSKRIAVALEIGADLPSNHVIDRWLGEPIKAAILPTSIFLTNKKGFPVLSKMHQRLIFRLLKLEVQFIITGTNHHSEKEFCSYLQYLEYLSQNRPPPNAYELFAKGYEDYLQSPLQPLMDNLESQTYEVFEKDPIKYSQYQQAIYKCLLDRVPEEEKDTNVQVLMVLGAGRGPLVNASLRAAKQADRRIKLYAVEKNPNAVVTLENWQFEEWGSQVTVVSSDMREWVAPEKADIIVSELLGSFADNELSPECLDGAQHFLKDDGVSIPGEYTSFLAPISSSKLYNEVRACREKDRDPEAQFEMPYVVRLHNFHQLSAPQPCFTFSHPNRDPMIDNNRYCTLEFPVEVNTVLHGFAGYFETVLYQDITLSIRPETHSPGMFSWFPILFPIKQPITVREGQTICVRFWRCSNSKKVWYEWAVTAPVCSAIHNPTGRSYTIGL
PRMT5/MEP50, sequence (Q9BQA1 2-342 partner limits assumed): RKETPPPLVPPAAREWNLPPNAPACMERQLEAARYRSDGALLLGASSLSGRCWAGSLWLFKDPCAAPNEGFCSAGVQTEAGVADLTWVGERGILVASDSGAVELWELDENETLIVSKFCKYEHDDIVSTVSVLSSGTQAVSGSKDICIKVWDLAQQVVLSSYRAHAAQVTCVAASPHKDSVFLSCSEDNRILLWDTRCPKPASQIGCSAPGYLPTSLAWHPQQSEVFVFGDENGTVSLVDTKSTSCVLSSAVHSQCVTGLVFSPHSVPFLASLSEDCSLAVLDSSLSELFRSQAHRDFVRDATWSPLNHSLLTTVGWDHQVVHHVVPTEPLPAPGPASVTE

For test [3], the system named is HCT116 WT cells. Kind of test: HCT116 proliferation assay, WT cells (CellTiter-Glo, 6 days). The conditions noted are these: Homo sapiens, HCT-116, 144 h, read-out: Prolif_HCT116-WT IC50. It counts as cell-based. Put shortly: as §1

As for `Cc1cc2cc(C(=O)N(Cc3ccc(C(F)(F)F)cn3)C3CCCC3C#N)ccc2nc1N` (stereo not drawn) [Example 699, 2-amino-N-(2-cyanocyclopentyl)-3-methyl-N-[[5-(trifluoromethyl)-2-pyridyl]methyl] quinoline-6-carboxamide], the IC50 in test [1] was 50 nM; in test [3], over 1000 nM. Further, in test [2], the Ki worked out at 3.86 nM.
